US20190275087A1, “EXPANSION AND DIFFERENTIATION OF STEM CELLS” (Allergan Pharmaceuticals International Limited, priority 2018, published 2019)
One block for each compound: values may come before it.

How the values were obtained:
MSCs [1] = experiment: MSC proliferation with integrin, FGFR, FAK and PKB/AKT inhibitors; type: cell-based, Human; conditions: for reduction of tropoelastin-mediated proliferation: downstream signaling inhibitor, 7 days
Protocol: (§1) Sub-confluent flasks of MSCs were treated with 0.05% (v/v) trypsin-EDTA (Sigma-Aldrich®) at 37° C. for 5 min to lift off adherent cells from the culture vessel. Trypsin was neutralized with two volumes of serum-containing growth media. Cells were centrifuged at 270 g for 5 min and resuspended in the required media. Cells were seeded at a density of 5000 cells/cm^2 on bare or protein-coated tissue culture plastic wells, in normal or supplemented media. Media was changed every 2 days. After specific time points, cells were fixed with 3% (v/v) formaldehyde at room temperature for 20 min, washed with PBS, then stained with 0.1% (w/v) crystal violet in 0.2 M MES buffer for 1 hour. Excess stain was washed off four times with reverse osmosis water. The retained stain was solubilized with 10% (v/v) acetic acid and sample absorbance values indicative of cell abundance were read at 570 nm. Sample absorbance values were subtracted by baseline values (corresponding to cell numbers in serum-free media, or cell numbers on day 1 post-seeding) and expressed as a fraction of the highest absorbance among all samples on day 7 post-seeding.
To block specific integrin activity, up to 20 μg/mL of anti-αv or anti-αvβ3 integrin antibodies (Abcam®), or up to 1:250 dilution of anti-αvβ5 integrin antibody (Abcam®) was added to the media during MSC spreading or proliferation assays. […] An anti-β8 integrin (5 μg/mL) (Abcam®) or a non-specific mouse IgG (5 μg/mL) (Sigma-Aldrich®) were also included as negative antibody controls. […] The integrin and FGFR inhibitors were replenished during every media change.

MSCs [2] = experiment: MSC attachment to substrate-bound tropoelastin (EDTA inhibition, cation add-back); type: cell-based, Human; conditions: 5 mM
Protocol: MSCs were seeded at a density of 1.5×10^5 cells/cm^2 on tropoelastin-coated wells in serum-free α-MEM containing 0-9 mM ethylenediaminetetraacetic acid (EDTA) (Sigma-Aldrich®). The cells were incubated for 1 hour at 37° C., then washed with PBS to remove unbound cells. Bound cells were fixed, stained and measured for absorbance at 570 nm as described for the proliferation assays. The percentage of cell attachment was determined relative to a set of standards with known cell numbers.
MSCs were washed with cation-free PBS, centrifuged at 270 g for 5 min, and resuspended in cation-free PBS. The cells were seeded at a density of 1.5×10^5 cells/cm^2 on tropoelastin-coated wells in the presence of 0-0.5 mM cation (Mg^2+, Ca^2+ or Mn^2+) and incubated for 45 min at 37° C. Bound cells were fixed and stained, and cell attachment was quantified as previously described.

[3] = tested on: Human bone marrow-derived MSCs; experiment: MSC proliferation (crystal violet cell abundance); type: cell-based
Protocol: Human bone marrow-derived MSCs obtained from American Type Culture Collection (ATCC) were cultured in normal media, which consists of Alpha-Minimum Essential Medium (α-MEM) (Lonza) with 10% (v/v) FBS (Life Technologies) and 2.4 mM L-glutamine (Lonza), at 37° C. in a humidified normoxic incubator up to a maximum of 10 population doublings. Where indicated, the normal media was supplemented with 15 ng/mL IGF-1 (Life Technologies) and/or […] bFGF (Life Technologies), equivalent to the growth factor concentrations in the ATCC-recommended media. Cells were passaged once they reach 70-80% confluence.
Where indicated, tissue culture plastic wells were coated with 20 μg/mL recombinant human tropoelastin (Elastagen) or 2 μg/mL fibronectin (Sigma-Aldrich®) in PBS (10 mM phosphate, 150 mM NaCl, pH 7.4) at 4° C. overnight. The protein solution was removed, and wells were washed three times with PBS to remove unbound protein prior to cell seeding.
[…] To prevent protein adhesion on the tissue culture substrate, wells were pre-incubated with normal media for 5 hours to enable surface blocking by serum proteins prior to cell seeding in supplemented media.
as §1

MSCs [4] = experiment: Flow cytometry of MSC surface marker expression; type: cell-based, Human; conditions: bare TCP, media with only this growth factor, 7 days post-seeding
Protocol: MSCs cultured for 5 or 7 days in various media formulations and on bare or protein-coated tissue culture wells were trypsinised and pelleted. The cell pellets were washed with 0.22 μm filtered FACS buffer (5% v/v FBS in PBS) and re-centrifuged at 270 g for 5 min. The cells were resuspended in FACS buffer to a concentration of 100,000 cells in 100 μL total volume, and probed for MSC marker expression using the Human Mesenchymal Stem Cell Verification Flow Kit (R&D Systems®). Isotype and unstained control samples were prepared using MSCs cultured in standard growth media on tissue culture plastic. Cells were analyzed using a BD™ Biosciences LSR II Flow Cytometer System. Singlet cells were determined by their forward scatter-to-side scatter and scatter height-to-width ratios, while viable cells were identified by exclusion of 1:20 propidium iodide. Only singlet, viable cells were analyzed for marker expression.

MSCs [5] = experiment: MSC spreading with integrin-blocking antibodies; type: cell-based, Human; conditions: no antibody
Protocol: Cells were fixed and visualized by phase contrast microscopy with a Zeiss Axio Vert.A1 microscope. Images were taken on an AxioCam ICml monochrome camera. […] Cell spreading was quantified by counting the percentage of spread cells in each field of view. Three fields of view were obtained for each sample replicate.
To block specific integrin activity, up to 20 μg/mL of anti-αv or anti-αvβ3 integrin antibodies (Abcam®), or up to 1:250 dilution of anti-αvβ5 integrin antibody (Abcam®) was added to the media during MSC spreading or proliferation assays. Optimal inhibitory concentrations were selected for the anti-αv (5 μg/mL), anti-αvβ3 (5 μg/mL), and anti-αvβ5 (1:500 dilution) integrin antibodies. An anti-β8 integrin (5 μg/mL) (Abcam®) or a non-specific mouse IgG (5 μg/mL) (Sigma-Aldrich®) were also included as negative antibody controls. To block FGFR activity, up to 20 μM of the SU-5402 FGFR inhibitor (Sigma-Aldrich®) was added to the media during MSC proliferation. The integrin and FGFR inhibitors were replenished during every media change.

integrins on MSCs = experiment: cell-based or functional assay

recombinant human tropoelastin (Elastagen), sequence (P15502 other isoform, or with tags, fused parts or gaps limits assumed): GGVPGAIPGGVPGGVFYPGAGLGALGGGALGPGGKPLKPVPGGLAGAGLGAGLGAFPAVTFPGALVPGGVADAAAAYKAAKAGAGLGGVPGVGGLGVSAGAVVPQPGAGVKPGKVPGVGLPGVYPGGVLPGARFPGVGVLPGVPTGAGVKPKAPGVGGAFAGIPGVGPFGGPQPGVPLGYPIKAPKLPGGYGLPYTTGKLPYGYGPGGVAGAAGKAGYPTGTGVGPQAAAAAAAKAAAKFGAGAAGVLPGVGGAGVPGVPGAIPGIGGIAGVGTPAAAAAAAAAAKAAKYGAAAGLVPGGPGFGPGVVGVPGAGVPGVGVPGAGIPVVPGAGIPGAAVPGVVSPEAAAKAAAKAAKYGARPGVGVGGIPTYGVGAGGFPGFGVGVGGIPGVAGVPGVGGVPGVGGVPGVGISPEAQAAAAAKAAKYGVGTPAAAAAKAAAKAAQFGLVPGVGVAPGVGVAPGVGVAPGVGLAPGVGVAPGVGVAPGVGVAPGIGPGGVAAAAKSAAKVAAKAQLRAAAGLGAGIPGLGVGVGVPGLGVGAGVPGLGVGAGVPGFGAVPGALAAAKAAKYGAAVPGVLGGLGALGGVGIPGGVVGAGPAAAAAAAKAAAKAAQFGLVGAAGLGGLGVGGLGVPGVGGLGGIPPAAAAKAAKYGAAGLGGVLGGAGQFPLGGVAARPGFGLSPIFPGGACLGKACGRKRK

Compound: Cc1c[nH]c(/C=C2\C(=O)Nc3ccccc32)c1CCC(=O)O [SU-5402]
reduction in overall cell numbers compared to no inhibitor control (MSCs [1]; bFGF-supplemented media, over 7 days): ≤ 78.9±0.7%

Compound: O=C(O)CN(CCN(CC(=O)O)CC(=O)O)CC(=O)O [EDTA, ethylenediaminetetraacetic acid, reference compound]
reduction of MSC binding to tropoelastin (MSCs [2]): 48.9±0.5%

Compound: CCCCCCCCCCCCCCCCCCOP(=O)([O-])OC1CC[N+](C)(C)CC1 [perifosine]
reduction of tropoelastin-mediated proliferation (MSCs [1]): 21.3±0.5%

Compound: IGF-1: insulin-like growth factor-1 (Life Technologies), media supplement [reference compound]
MSC numbers compared to normal media ([3]; media supplementation with IGF-1 alone): did not increase MSC numbers
cells expressing CD73 (MSCs [4]): 89.1±0.1%
cells positive for CD105 (MSCs [4]): 83.9±0.7%

Compound: fibronectin [reference compound]
decrease in MSC proliferation on coated surface following serum reduction ([3]; 20% reduction in serum, after 7 days): 15±0.1%
inhibition of MSC proliferation on coated TCP compared to normal media ([3]; 40% decrease in serum, after 7 days): 25±1%
coating concentration that promoted MSC expansion ([3]; coated on the substratum): ≥ 2 µg/mL
serum reduction at which MSC numbers significantly decreased ([3]; coated surface, until 3 days post-seeding): completely absent
MSC propagation of fibronectin coating relative to tropoelastin coating ([3]; full serum media): equally promoted
stimulation of MSC proliferation above normal media ([3]; in solution in media, up to 7 days): did not trigger any proliferative response
cell spreading on fibronectin (MSCs [5]): 92.5±2.6%

Compound: Nc1cc(N)c(N)cc1N [FAK inhibitor 14]
reduction of tropoelastin-mediated proliferation (MSCs [1]): 50.7±2.0%

MSC adhesion to tropoelastin after addition of up to 0.5 mM Ca2+ (integrins on MSCs): 13.7%
MSC adhesion to tropoelastin after addition of up to 0.5 mM Mg2+ (integrins on MSCs): 51.8%
MSC adhesion to tropoelastin after addition of up to 0.5 mM Mn2+ (integrins on MSCs): 76.1%
MSC adhesion to tropoelastin in a cation-free environment (integrins on MSCs): 20%
reduction of MSC attachment to substrate-bound tropoelastin in the presence of 5 mM EDTA (integrins on MSCs): 48.9%
Compound: recombinant human tropoelastin (Elastagen) (from UniProt P15502 27-724) (ligand)

Compound: bFGF: basic fibroblast growth factor (Life Technologies), media supplement [reference compound]
cells positive for CD105 (MSCs [4]): 92.9±5.9%
